# Values of other authors as cited in patent publication US20080132534A1, “Pharmaceutical composition comprising a macrolide immunomodulator” (priority 2003, published 2008).
# Test system: allogeneic kidney transplantation
# Settings: rat, oral administration, suppression of systemic immune response
structure (smiles),measurement,value
C=CC[C@@H]1/C=C(\C)C[C@H](C)C[C@H](OC)[C@H]2O[C@@](O)(C(=O)C(=O)N3CCCC[C@H]3C(=O)O[C@H](/C(C)=C/[C@@H]3CC[C@@H](O)[C@H](OC)C3)[C@H](C)[C@@H](O)CC1=O)[C@H](C)C[C@@H]2OC [tacrolimus],minimum effective dose (MED),14 mg/kg
